Assay results reported in patent publication US8754094B2, “Methods for heat shock protein dependent cancer treatment” (The Research Foundation of State University of New York, priority 2007, dated 2014).
Entries after “also recorded” stand apart in the source; their conditions may differ. Residues, ends and D or L forms follow the SMILES beside them. *: point of attachment. Cbz = O=C(OCc1ccccc1)*

Tests used:
primary MM cells = assay: MTS survival assay, primary bone-marrow MM tumor cells from patients; assay type: cell-based, human; details: FIG. 36C
Experimental: Primary bone-marrow tumor cells and endothelial progenitor cells (EPCs) were obtained from previously untreated MM patients. That is, 10 ml bone marrow aspirates were collected in BD Vacutainers containing heparin (BD, Franklin, N.J.), and red cells may be removed from MM bone marrow samples using a Red Blood Cell Lysis Buffer (Roche Applied Science, Indianapolis, Ind.) to obtain primary tumor cells in marrow samples consisting of greater than 80% CD138-positive tumor cells, determined by flow cytometry as may be desired. Tumor cells were used for experiments the day they were harvested, and were cultured in the MM cell line medium described above.
(§1) MAL3-101 (the structure is shown as the final product in FIG. 12, in FIG. 13, and in FIG. 25B), the proteasome inhibitor MG-132 (A.G. Scientific, San Diego, Calif.) and the Hsp90 inhibitor 17-allylamino-17-demethoxygeldanamycin (17-AAG) (Calbiochem/EMD Biosciences, San Diego, Calif.) were dissolved in dimethylsulfoxide (DMSO; Sigma-Aldrich, St. Louis, Mo.), and stored at −20° C. Final concentration of DMSO was 0.03% and this was used to treat control cells. The MM cell lines examined were NCI-H929, RPMI-8226, and U266 (ATCC, Manassas, Va.). Normal peripheral blood mononuclear cells (PBMC) and bone marrow (BM) cells were obtained from StemCell Technologies (Vancouver, Canada). […]

XBP-1 mRNA splicing = assay: RT-PCR analysis of XBP-1 mRNA splicing (UPR) in NCI-H929; assay type: cell-based, human; details: for XBP-1 mRNA splicing at early time points: NCI-H929, early time points (4 h), concentrations that gave synergistic cytotoxicity
Experimental: Total RNA was prepared from NCI-H929 and HEK293 cells using TRIzol reagent (Invitrogen, Carlsbad, Calif.) following exposure to MAL3-101, MG-132, and 17-AAG alone and in combination at the indicated time points. Tunicamycin was used at varying concentrations.
Total RNAs were used for the first-strand synthesis with the Superscript reverse transcriptase (Invitrogen, Carlsbad, Calif.). PCR primers (5′-[…]-3′ [Seq. ID No. 1] and 5′-[…]-3′ [Seq. ID No. 2]) encompassing the missing sequences in XPB-1s were used for the PCR amplification with AmpliTaq Gold polymerase (Applied Biosystem, Foster City, Calif.) with a probe set spanning the spliced-out region. PCR products were separated by electrophoresis on a 3% agarose gel (Agarose-1000, Invitrogen) and visualized them by ethidium bromide staining to assess the degree of X-box binding protein-1 unspliced (XBP-1u, ˜280 bp) and spliced (XBP-1s, ˜265 bp) mRNA.
Unspliced (XBP-1u, 285 bp) and spliced (XBP-1s, 259 bp) XBP-1 mRNA levels of treated NCI-H929 were determined by PCR amplification of total RNA that was reverse transcribed by SuperScript Reverse Transcriptase (Invitrogen, Carlsbad, Calif.). PCR primers (5′-[…]-3′ [Seq. ID No. 1] and 5′-[…]-3′ [Seq. ID No. 2]), which flank the 26-nt intron of XBP1 mRNA, were used for PCR amplification with Ex Taq polymerase (Takara Bio, Shiga, Japan).

BiP = assay: Levels of ER lumenal chaperone BiP in NCI-H929; assay type: cell-based, human; details: NCI-H929, data not shown
NCI-H929 [1] = assay: Cell cycle analysis by PI staining and FACS, NCI-H929; assay type: cell-based, human; details: NCI-H929, 10 μM, within 48 h of culture
Experimental: Cell cycle analysis of control (DMSO-treated) or MAL3-101-treated NCI-H929 (2×10^5) was assessed by PI staining and FACS analysis of samples. Resulting DNA distributions were analyzed for the proportions of cells in G0/G1 and G2/M phases of the cell cycle after subtractive gating of cell doublets and debris as described in G. Anderson, M. Gries, N. Kurihara, T. Honjo, J. Anderson, V. Donnenberg, A. Donnenberg, I. Ghobrial, M. Y. Mapara, D. Stirling, D. Roodman, S. Lentzsch, Thalidomide derivative CC-4047 inhibits osteoclast formation by down-regulation of PU. 1, Blood 107 (2006) 3098-3105, which is incorporated herein by reference.

NCI-H929 [2] = assay: Western immunoblotting of caspase-3 and PARP cleavage, NCI-H929; assay type: cell-based, human; details: NCI-H929, 10 μM, time course
Experimental: Whole-cell lysates were prepared using the Mammalian Cell Lysis Kit (Sigma-Aldrich) and analyzed by Western blot analysis as described in the Zhang reference, cited supra, which is incorporated herein by reference. Equal amounts of protein were separated by SDS-PAGE and electrotransferred onto a nylon membrane. Primary antibodies to detect caspase-3 (Cell Signaling Technology, Danvers, Mass.), poly (ADP-ribose) polymerase (PARP; Abcam, Cambridge, Mass.), and β-actin (Sigma Aldrich) were used along with a HP-conjugated goat-anti-mouse polyclonal secondary antibody (BD Biosciences, Franklin Lakes, N.J.). Enhanced chemiluminescence (ECL) substrate (Pierce Biotechnology, Rockford, Ill.) was used for antibody detection.

[3] = system: normal control BM, PBMC, and EPC populations; assay: MTS survival assay, normal control cells; assay type: cell-based; details: FIG. 36D
Experimental: as §1, with “Canada). Primary MM cells and EPCs were from BM aspirates of newly-diagnosed patients following informed consent. MM cells were enriched to >95% CD138^+ cells by positive selection, using anti-CD138 MACS Microbeads according to the manufacturer's instructions (Miltenyi, San Diego, Calif.).” for “Canada).”

U266 = assay: Growth inhibition of MM cell line U266; assay type: cell-based, human; details: U266 compared to NCI-H929
Experimental: (§2) Viability was estimated according to the following formula: […]
(§3) Control cells were cultured in DMSO.

RPMI-8226 = assay: Growth inhibition of MM cell line RPMI-8226; assay type: cell-based, human; details: RPMI-8226 compared to NCI-H929
Experimental: as §2, §3

| SMILES | reduction of viability of MM cells extracted from the BM (primary MM cells) [%] | XBP-1 mRNA splicing at early time points (XBP-1 mRNA splicing) | levels of BiP (BiP) | decrease in cells in the G2/M phase (NCI-H929 [1]) [fold] | increase in the sub-G0/G1 phase (NCI-H929 [1]) [fold] | cleavage of caspase-3 and PARP (NCI-H929 [2]) | cytotoxicity in normal control cells [3] | XBP-1 mRNA splicing at high concentration (XBP-1 mRNA splicing; NCI-H929, 30 μM, after 24 h of culture) | sensitivity to MAL3-101-induced growth inhibition (U266) | sensitivity to MAL3-101-induced growth inhibition (RPMI-8226) |
| --- | --- | --- | --- | --- | --- | --- | --- | --- | --- | --- |
| CC(C)C[C@@H](C=O)NC(=O)[C@H](CC(C)C)NC(=O)[C@H](CC(C)C)NC(=O)OCc1ccccc1 [MG-132, reference compound] (Cbz-Leu-Leu-Leu-aldehyde) | 44±10 | no XBP-1 mRNA splicing was observed | did not change |  |  |  |  |  |  |  |
| CCCCCCN(C(=O)CCCCCN1C(=O)NC(c2ccc(-c3ccccc3)cc2)C(C(=O)OCc2ccccc2)=C1C)C(C(=O)NCCCC)c1ccc(OCC(=O)OC)c(C(=O)OC)c1 (stereo not shown) [MAL3-101] | 33±8 | there does not appear to be an effect; also recorded: no XBP-1 mRNA splicing was observed | did not change | 2.5 | ~3 | time-dependent increase in the cleavage of caspase-3 and PARP | lack of cytotoxicity; also recorded: lack of sensitivity | minimal XBP-1 mRNA splicing occurred | less sensitive | less sensitive |
